From PMC3615092, “Identification, Design and Bio-Evaluation of Novel Hsp90 Inhibitors by Ligand-Based Virtual Screening” (PLoS ONE, 2013)

Legend:
MCF-7 cells = assay: Western-Blot analysis of Hsp90 client proteins and Hsp70; type: cell-based; conditions: MCF-7, 36 h
Procedure: MCF-7 cells were pretreated with various concentrations of the test compounds. After stimulation, cells were collected; lysed in lysis buffer [50 mM Tris-Cl, pH 7.6, 150 Mm NaCl, 1 mM EDTA, 1% (m/v) Nonidet P-40 (NP-40), 0.2 mM Phenylmethanesulfonyl fluoride (PMSF), 0.1 mM NaF and 1.0 mM dithiothreitol (DTT)], and the supernatant was obtained after centrifugation at 13,000× g for 10 min at 4°C. The concentration of protein in the supernatants was measured by the bicinchoninic acid (BCA) assay. Then equal amounts of protein (50 μg) were separated by 8% or 10% sodium dodecyl sulfate polyacrylamide gel electrophoresis (SDS-PAGE) and transferred onto the PVDF membranes (Millipore, Billerica, MA). The blots were incubated with specific antibodies against the indicated primary antibodies overnight at 4°C followed by IRDyeTM800-conjugated secondary antibody for 1 h at 37°C. Detection was performed by the Odyssey Infrared Imaging System (LI-COR; Lincoln, NE). All blots were stripped and incubated with polyclonal anti-β-actin antibody to ascertain equal loading of proteins.

Hsp70 = molecular target: T1, Hsp70 (Homo sapiens, UniProt P0DMV8); assay: Hsp70 ATPase activity assay (ADP Hunter Plus); type: biochemical
T1 construct: purchased Enzo Life science ALX-201-214-C025
Text: The following materials were used for the biological evaluation: The PET-28a HSP90 expression vector was constructed. The Ni^2+-nitrilo-triacetic acid (NTA) agarose was purchased from General Electric (USA). […] Isopropyl-1-thio-d-galactopyranoside (IPTG) was purchased from Sigma (St. Lousi. MO). Antibodies of β-Actin, Hsp70, Hsp90, c-Raf, Akt, Src, Phospho-Src, ERK and Her-2 were purchased from Cell Signaling Technology (Danvers, MA). Anti-p-Akt(S473) was purchased from Signalway Antibody (Baltimore, MD). HIF-1α antibody was purchased from R&D systems. The stock solution of Hsp90 was prepared in a 20 mM Tris-Cl buffer with a pH 7.4, and concentration was fixed at 5.0 μM. […] The screened out compounds were purchased from SPECS and dissolved in DMSO (Sigma, St. Louis, MO) to make a final concentration of 10^−2 mol/L and were stored at −20°C. […] The water used in the experiments was thrice-distilled and all other materials were of analytical reagent grade.
Hsp70 ATPase activity was measured using Discover RX ADP Hunter^TM Plus Assay kit assay as descripted in the manufacturer's instructions. Breifly, Hsp70 (3 μM) was incubated with 1 mM ATP in 100 mM Tris pH 7.4 at 37°C for 3 h in the presence or absence of various concentrations of test compounds. ADP generation was measured using Varioskan multimode microplate spectrophotometer (540 nm excitation and 620 nm emission). Fluorescence intensity values measured for Hsp70 without any testing compound was assumed as 100% of enzyme activity. The background reaction rate was measured in a reaction lacking enzyme or substrate and subtracted from the experimental rates.

Hsp90 = molecular target: T2, Hsp90 (Homo sapiens, UniProt P07900); assay: ATP hydrolysis inhibition, ADP Hunter Plus (ADP fluorescence) assay; type: biochemical; conditions: by ADP fluorescence assay
T2 construct: The region encoding full-length Hsp90 was subcloned into pET28a; inferred from the pET28a vector and Ni-NTA purification; made in house; host or cells: E. coli
Procedure: The first and last rows of the 96-well plate contained the appropriate concentration of DMSO were used as blank control. ATP was dissolved in the assay buffer to give a stock concentration of 2.5 mM and stored at room temperature. A 10 μL aliquot of ATP solution was added to each well to give a final assay concentration of 1 mM. Before the usage, Hsp90 protein was thawed on ice and suspended in chilled assay buffer to a stock concentration of 0.45 mg/mL, and the solution was kept on ice. […] The plates were shaken for approximately 2 min and incubated for 3 h at 37°C. The Discover RX ADP Hunter^TM Plus Assay kit (Discoverx, Fremont, CA) was used following the manufacturer's instructions. ATPase reactions were carried out after 3 h at 37°C temperature in presence of different concentrations of compounds. ADP generation was measured using Varioskan multimode microplate spectrophotometer (540 nm excitation and 620 nm emission). […] The background reaction rate was measured in a reaction lacking enzyme or substrate and subtracted from the experimental rates.

A549 = assay: Anti-proliferation MTT assay; type: cell-based; conditions: Homo sapiens, A549, 48 h
Procedure: (§1) Cell viabilities were measured by a colorimetric assay using 3-(4, 5-dimethylthiaz-ol-2-yl)-2,5-diphenyltetrazoliumbromide (MTT, Sigma, Ltd.) as described previously. Experiments were carried out in triplicate in a parallel manner for each concentration of target compounds and the results were presented as mean ± SE. Control cells were given only culture media. After incubation for 48 h, absorbance (A) was measured at 570 nm. Survival ratio (%) was calculated using the following equation: survival ratio (%) = (Atreatment/Acontrol) × 100%.

MDA-MB-231 = assay: Anti-proliferation MTT assay; type: cell-based; conditions: Homo sapiens, MDA-MB-231, 48 h
Procedure: as §1

HepG2 = assay: Anti-proliferation MTT assay; type: cell-based; conditions: Homo sapiens, HepG2, 48 h
Procedure: as §1

MCF-7 [1] = assay: Anti-proliferation MTT assay; type: cell-based; conditions: Homo sapiens, MCF7, 48 h
Procedure: as §1

HCT116 [2] = assay: Anti-proliferation MTT assay; type: cell-based; conditions: Homo sapiens, HCT-116, 48 h
Procedure: as §1

SK-BR-3 = assay: Anti-proliferation MTT assay; type: cell-based; conditions: Homo sapiens, SK-BR-3, 48 h
Procedure: as §1

SKBR3 = assay: Cell morphological assessment (DAPI staining, apoptosis); type: cell-based; conditions: SK-BR3, 2, 5, 10 μM, 24 h
Procedure: (§2) To detect morphological evidence of apoptosis, HCT116, MCF-7 and SKBR3 cell nuclei were visualized following DNA staining with the fluorescent dye DAPI. Briefly, cells were seeded at a concentration of 1×10^5 cells/well in 6-well tissue culture plates and treated with indicated concentration of S13. At the end of incubation, the morphology of cells was monitored under an inverted light microscope. Cells were then fixed with 4% paraform for 20 min and washed with PBS, and then incubated with DAPI (1 μg/ml) for 10 min. After washed with PBS, cells were observed using fluorescent microscopy (Olympus, Japan) with a peak excitation wave length of 340 nm.

MCF-7 [3] = assay: as above; type: cell-based
Procedure: as §2

HCT116 [4] = assay: as above; type: cell-based; conditions: HCT116, 2, 5, 10 μM, 24 h
Procedure: as §2

T1 sequence (P0DMV8 whole entry): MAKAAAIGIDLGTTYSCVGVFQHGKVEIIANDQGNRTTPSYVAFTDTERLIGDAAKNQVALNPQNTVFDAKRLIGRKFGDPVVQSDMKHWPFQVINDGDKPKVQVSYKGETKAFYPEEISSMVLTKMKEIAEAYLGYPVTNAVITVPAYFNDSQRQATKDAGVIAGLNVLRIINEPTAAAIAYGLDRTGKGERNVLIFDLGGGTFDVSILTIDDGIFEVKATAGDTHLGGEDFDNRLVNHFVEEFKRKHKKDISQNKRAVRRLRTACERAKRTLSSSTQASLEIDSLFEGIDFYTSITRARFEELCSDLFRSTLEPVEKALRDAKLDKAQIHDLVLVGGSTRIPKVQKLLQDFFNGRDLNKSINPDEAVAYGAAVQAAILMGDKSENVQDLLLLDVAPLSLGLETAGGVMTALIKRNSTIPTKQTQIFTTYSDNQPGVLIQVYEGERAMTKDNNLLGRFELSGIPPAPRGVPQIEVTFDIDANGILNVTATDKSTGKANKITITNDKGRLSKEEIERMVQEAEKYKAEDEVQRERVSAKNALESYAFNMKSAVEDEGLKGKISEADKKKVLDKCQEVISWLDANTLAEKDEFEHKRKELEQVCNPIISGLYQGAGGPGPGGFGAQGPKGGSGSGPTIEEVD

COc1ccccc1N1CCN(CC(O)COCCOc2ccc(Br)cc2)CC1 (stereo not drawn) [Compound S13]
Hsp70 expression (MCF-7 cells): up-regulates
depletion of Hsp90-dependent client proteins (Her2, Src, Akt, ERK, c-Raf, Hif-1α) (MCF-7 cells): concentration-dependent
IC50 (Hsp70; ADP Hunter Plus assay): 43.8 ± 4.38 µM
selectivity HSP90 over HSP70 (Hsp70; ratio of IC50 HSP70 / HSP90, ADP fluorescence assay): over 15 times
IC50 (Hsp90): 2830 nM
IC50 (A549): 830 nM
IC50 (MDA-MB-231): 14.6 µM
IC50 (HepG2): 96.6 µM
IC50 (MCF-7 [1]): 2010 nM
IC50 (HCT116 [2]): 3.63 µM
IC50 (SK-BR-3): 3.32 µM
apoptosis-induced effects (SKBR3): dose-dependent
apoptosis induced (MCF-7 [3]; 10 μM, MCF-7 cells): over 50%
apoptosis-induced effects (MCF-7 [3]; MCF-7, 2, 5, 10 μM, 24 h): dose-dependent
apoptosis-induced effects (HCT116 [4]): dose-dependent
